According to patent US7109174B2, “Anticonvulsant derivatives useful for preventing the development of type II diabetes mellitus and syndrome X” (Ortho-McNeil Pharmaceutical, Inc., priority 2000, dated 2006):

Legend:
[1] = test system: rodent models of epilepsy; details: several rodent models of epilepsy; cited from earlier work
human epilepsy = details: clinical trials; cited from earlier work
ob/ob mice = ob/ob mice second study: topiramate in food for 118 days; skin lesions, glucose, insulin, glycosylated hemoglobin, body weight; type: in vivo; design: Glycosylated hemoglobin: unit not given here; details: for Skin lesions Mild (mice) / Skin lesions Moderate (mice) / Skin lesions Severe (mice) / Skin lesions Total (mice): 180 mg/kg/day, N = 9
Source text: It is known that ob/ob mice when allowed to eat ad libitum, develop abnormally high blood levels of insulin (hyperinsulinemia), glucose (hyperglycemia), lesions of the skin, and a high level of glycosylated hemoglobin, all of which are hallmark signs of Type II diabetes mellitus (R. R. HENRY, Ann. Intern. Med. 1996, 124, 97–103; G. W. EDELSON, Clin. Podiatr. Med. Surg. 1998, 15, 41–48; P. R. JOHNSON, M. R. GREENWOOD, B. A. HORWITZ and J. S. STERN, Annu. Rev. Nutr. 1991, 11, 325–353). Based on this knowledge of the ob/ob mouse model, two studies were designed to determine the effect of compounds of formula (I) in these mice models.
In the second study, a uniform population of mice was divided into two groups. In one group of control mice, no topiramate was added to the food for the entire 118-day period. In a second group, topiramate was added to the food in amounts sufficient to give a daily dose of 60 mg/kg for 6 days, then a daily dose of 180 mg/kg for 112 days. During the course of the dosing period the mice were examined two-times a week for skin lesions. When skin lesions were evident, the severity was estimated based on the number and size of the lesions, and given a score ranging from mild to severe (Table 2). For four of the control mice their health deteriorated to the point that they either died or had to be euthanized. Three of these four control mice had lesions (two mice were classified as severe and one mice as mild). […] By comparison none of the nine mice treated with topiramate ever developed skin lesions (Table 2). After the 118-day period was completed, all surviving mice were sacrificed and blood was obtained and prepared for subsequent analysis of plasma glucose and insulin, and glycosylated hemoglobin. […] The body weight gain was similar in both groups throughout the study. Therfore, the beneficial effects of topiramate on the biological markers of the disease cannot be secondary to the potential beneficial effect that might arise from a loss of body eight.

[2] = test system: Heterozygous Non-Diabetic Mice; test: Plasma glucose, triglycerides and body weight in heterozygous non-diabetic littermates, 11 days oral dosage; type: in vivo; details: for Plasma Glucose % Change / Plasma Triglycerides % Change: versus vehicle; for Change in Body Weight / Plasma Glucose Plasma Conc. / Plasma Triglycerides Plasma Conc.: ± SEM
Protocol: Six to seven week old female C57 BLK SIJ-m^+/^+ Lepr^db mice (db/db) and heterozygous littermates were purchased from The Jackson Laboratory (Bar Harbor, Me.). Upon arrival the mice were quarantined for 5 days and housed in pairs in shoe-box cages containing ALPHA-dri® bedding (Shepherd Speciality Papers, Inc., Kalamazoo, Mich.). The mice were maintained at an ambient temperature of 21 to 23° C. on a 12 hour-12 hour light-dark schedule and given access to water and food ad libitum. The diet was comprised of NIH (National Institutes of Health) Rat and Mouse/Auto 6F Reduced Fat Diet No. 5K52 (PMI Nutrition International Inc., Brentwood, Mo.).
The vehicle, used as a reference and for test compounds, was 0.5% methylcellulose dissolved in water. The compounds were either fully dissolved or uniformly suspended in the vehicle when administered to the mice.
The db/db mice were randomly separated into five groups of eight, as were the heterozygous littermates. The groups were as follows: one vehicle control group and four groups that each received one of four doses of topiramate (TPM) (10, 30, 100, or 300 mg/kg, respectively). Topiramate or vehicle was administered orally by gavage once a day during the 8th hour of the light portion of the light-dark cycle.
Between 18 and 24 hours after the last dose was administered, the mice were anesthetized with CO2/O2 (70:30) and blood from the retro-orbital sinus puncture was collected into 2 mL heparinized snap-top polypropylene tubes, then placed in ice.
Plasma was separated from blood cells by centrifugation (15 minutes at 1600 g). For samples not assayed immediately, the plasma was transferred into 96-well plates and frozen at −70° C.
Glucose and triglycerides were assayed using standard procedures for blood clinical laboratories. Specifically, the samples were analyzed using an automated Hitachi 717 autoanalyzer (Boehringer Mannheim/Hitachi 717 Autoanalyzer, Boehringer Mannheim Laboratory Systems Division, Indianapolis, Ind.). A statistical analysis of data for the drug-treated groups compared to data for the vehicle group was performed using the one-way analysis of variance (ANOVA) with Dunnett's Multiple Comparisons test.
Following the procedure described above, the effect of topiramate on plasma glucose and triglyceride levels was determined for female diabetic db/db mice and littermates, following 11 days oral dosage, with results as listed in Table 3 and 4. Body weights are in Table 5. The abbreviation N represents the number of animals per study group.

In the case of CC1(C)O[C@@H]2[C@@H](CO[C@@]3(COS(N)(=O)=O)OC(C)(C)O[C@@H]23)O1 [Topiramate, 2,3:4,5-bis-O-(1-methylethylidene)-β-D-fructopyranose sulfamate], the seizure block [1] is given as “effectively block seizures”, the “efficacy as adjunctive therapy or monotherapy in simple and complex partial seizures and secondarily generalized seizures” value (human epilepsy) is given as “effective” and the “level of blood glucose” value (ob/ob mice; 60 mg/kg/day 6 days then 180 mg/kg/day 112 days in food, end of study, mean±SEM, n=9, P<0.05) is given as 131 ± 13 mg/dL. For the same compound, the “Skin lesions Mild (mice)” value (ob/ob mice; Day 41) was 0, the “Skin lesions Moderate (mice)” value (ob/ob mice; Day 41) was 0 and the “Skin lesions Severe (mice)” value (ob/ob mice; Day 41) was 0. For the same compound, the “Skin lesions Total (mice)” value (ob/ob mice; Day 41) was 0, the “Skin lesions Mild (mice)” value (ob/ob mice; Day 53) was 0 and the “Skin lesions Moderate (mice)” value (ob/ob mice; Day 53) was 0. The “Skin lesions Severe (mice)” value (ob/ob mice; Day 53) was 0, the “Skin lesions Total (mice)” value (ob/ob mice; Day 53) was 0 and the “Skin lesions Mild (mice)” value (ob/ob mice; Day 61) was 0. For the same compound, the “Skin lesions Moderate (mice)” value (ob/ob mice; Day 61) was 0, the “Skin lesions Severe (mice)” value (ob/ob mice; Day 61) was 0 and the “Skin lesions Total (mice)” value (ob/ob mice; Day 61) was 0. For the same compound, the “Skin lesions Mild (mice)” value (ob/ob mice; Day 70) was 0, the “Skin lesions Moderate (mice)” value (ob/ob mice; Day 70) was 0 and the “Skin lesions Severe (mice)” value (ob/ob mice; Day 70) was 0. The “Skin lesions Total (mice)” value (ob/ob mice; Day 70) was 0, the “Skin lesions Mild (mice)” value (ob/ob mice; Day 83) was 0 and the “Skin lesions Moderate (mice)” value (ob/ob mice; Day 83) was 0. The “Skin lesions Severe (mice)” value (ob/ob mice; Day 83) was 0, the “Skin lesions Total (mice)” value (ob/ob mice; Day 83) was 0 and the “Skin lesions Mild (mice)” value (ob/ob mice; Day 96) was 0. The “Skin lesions Moderate (mice)” value (ob/ob mice; Day 96) was 0, the “Skin lesions Severe (mice)” value (ob/ob mice; Day 96) was 0 and the “Skin lesions Total (mice)” value (ob/ob mice; Day 96) was 0. The “Skin lesions Mild (mice)” value (ob/ob mice; Day 97) was 0, the “Skin lesions Moderate (mice)” value (ob/ob mice; Day 97) was 0 and the “Skin lesions Severe (mice)” value (ob/ob mice; Day 97) was 0. For the same compound, the “Skin lesions Total (mice)” value (ob/ob mice; Day 97) was 0, the “Skin lesions Mild (mice)” value (ob/ob mice; Day 105) was 0 and the “Skin lesions Moderate (mice)” value (ob/ob mice; Day 105) was 0. For the same compound, the “Skin lesions Severe (mice)” value (ob/ob mice; Day 105) was 0, the “Skin lesions Total (mice)” value (ob/ob mice; Day 105) was 0 and the “Skin lesions Mild (mice)” value (ob/ob mice; Day 118) was 0. The “Skin lesions Moderate (mice)” value (ob/ob mice; Day 118) was 0, the “Skin lesions Severe (mice)” value (ob/ob mice; Day 118) was 0 and the “Skin lesions Total (mice)” value (ob/ob mice; Day 118) was 0. The body weight (ob/ob mice; day 118) was 55.1 ± 1.3 g, the body weight (ob/ob mice; day −1, n=9) was 42.8 ± 1.1 g and the “insulin levels versus control” value (ob/ob mice; end of 118-day study) was “did not differ”. The Glycosylated hemoglobin (ob/ob mice; end of 118-day study, mean±SEM, n=9, P<0.01) was 3.16±0.1, the “mice that ever developed skin lesions” value (ob/ob mice; nine topiramate-treated mice, 118-day period) was “none” and the “body weight gain versus control” value (ob/ob mice; throughout the 118-day study) was “similar”. For the same compound, the “blood glucose difference between groups” value (ob/ob mice; topiramate-treated versus control at end of 118-day study) was 52%, the “Glycosylated hemoglobin reduction with topiramate treatment” value (ob/ob mice; versus surviving control mice, end of 118-day study) was 48% and the “Plasma Glucose % Change” value ([2]; 10 mg/kg oral once a day) was −1.2%. The “Plasma Triglycerides % Change” value ([2]; 10 mg/kg oral once a day) was −0.3%, the “Change in Body Weight” value ([2]; 10 mg/kg oral once a day) was 0.5 ± 0.2 g and the “Plasma Glucose Plasma Conc.” value ([2]; 10 mg/kg oral once a day) was 145 ± 6 mg/dL. The “Plasma Triglycerides Plasma Conc.” value ([2]; 10 mg/kg oral once a day) was 141 ± 13 mg/dL, the “Plasma Glucose % Change” value ([2]; 30 mg/kg oral once a day) was “+3.8%” and the “Plasma Triglycerides % Change” value ([2]; 30 mg/kg oral once a day) was −17.5%. The “Change in Body Weight” value ([2]; 30 mg/kg oral once a day) was 0.0 ± 0.3 g, the “Plasma Glucose Plasma Conc.” value ([2]; 30 mg/kg oral once a day) was 152 ± 6 mg/dL and the “Plasma Triglycerides Plasma Conc.” value ([2]; 30 mg/kg oral once a day) was 116 ± 6 mg/dL. The “Plasma Glucose % Change” value ([2]; 100 mg/kg oral once a day) was “+0.8%”, the “Plasma Triglycerides % Change” value ([2]; 100 mg/kg oral once a day) was −34.8% and the “Change in Body Weight” value ([2]; 100 mg/kg oral once a day) was 0.2 ± 0.2 g. For the same compound, the “Plasma Glucose Plasma Conc.” value ([2]; 100 mg/kg oral once a day) was 148 ± 7 mg/dL, the “Plasma Triglycerides Plasma Conc.” value ([2]; 100 mg/kg oral once a day, P < 0.01) was 92 ± 6 mg/dL and the “Plasma Glucose % Change” value ([2]; 300 mg/kg oral once a day) was −17.2%. For the same compound, the “Plasma Triglycerides % Change” value ([2]; 300 mg/kg oral once a day) was −1.8%, the “Plasma Triglycerides Plasma Conc.” value ([2]; 300 mg/kg oral once a day) was 138 ± 15 mg/dL and the “Plasma Glucose Plasma Conc.” value ([2]; 300 mg/kg oral once a day, P < 0.01) was 121 ± 7 mg/dL. For the same compound, the “Change in Body Weight” value ([2]; 300 mg/kg oral once a day, P < 0.05) was -2.2 ± 0.5 g.
